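Cells were grown in 96-well plates and exposed to each compound for 48 hours at five concentrations; endpoints were interpolated linearly between bracketing concentrations, or set to the highest concentration if not reached. GI50 is the concentration that inhibits growth by half. At the TGI there is no net growth.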
Assays:
Test in all cases: growth of human tumour cells (NCI), 48 h
[1] = system: EKVX NSCLC
[2] = system: SK-MEL-2 melanoma
[3] = system: RXF 393 renal
[4] = system: NCI-H460 lung
[5] = system: A549 NSCLC
[6] = system: HOP-92 NSCLC
[7] = system: NCI-H23 lung
[8] = system: MDA-MB-231 breast
[9] = system: K-562 leukemia
[10] = system: M19-MEL melanoma
[11] = system: DMS 273 small cell lung

Structure (SMILES) | TGI [1] [µM] | TGI [2] [µM] | TGI [3] [µM] | TGI [4] [µM] | TGI [5] [µM] | TGI [6] [µM] | TGI [7] [µM] | TGI [8] [µM] | TGI [9] [µM] | TGI [10] [µM] | TGI [11] [µM] | GI50 [1] [µM] | GI50 [2] [µM] | GI50 [3] [µM] | GI50 [4] [µM] | GI50 [5] [µM] | GI50 [6] [µM] | GI50 [7] [µM] | GI50 [8] [µM] | GI50 [9] [µM]
Cc1cn2c(C)csc2c1P(=O)(OC(C)C)OC(C)C | > 100 | > 100 | > 100 | > 100 | > 100 | > 100 | > 100 | > 100 | > 100 |  |  |  |  |  |  |  |  |  |  | 
COC(=O)c1cc(C)ccc1CC(Cc1ccc(C)cc1)C(=O)OC (configuration not stated) | > 100 | > 90.3 | 11.5 | > 100 | > 100 | 60.2 | > 100 | > 100 | > 38.7 |  |  |  |  |  |  |  |  |  |  | 
COC(=O)C1=C(C)NC(C)=C([N+](=O)[O-])C1c1cccc(N=O)c1 (configuration not stated) | 41.2 | 33.8 | 27.6 | 31.1 | 40.1 | 12.8 | 33.5 | 32.6 | > 100 |  |  |  |  |  |  |  |  |  |  | 
Cc1cc2nc(-c3cc(C(C)(C)C)c(O)c(C(C)(C)C)c3)[nH]c2cc1C | > 100 | > 100 | > 100 | > 100 | 26.3 | > 100 | > 100 | > 100 | > 43.1 |  |  |  |  |  |  |  |  |  |  | 
C=C(C)[C@@]1(O[Si](C)(C)C)CCCC[C@@H]1CC(Sc1ccccc1)Sc1ccccc1 | 32.1 | 31 | 24.6 | 29.6 | 23.1 | 26 | 30.9 | 32.1 | 41.2 |  |  |  |  |  |  |  |  |  |  | 
Cc1cc(/N=C/c2ccc(C#N)cc2)n(-c2ccccc2)n1 | > 100 | > 100 | > 100 | > 100 | > 100 | > 100 | > 100 | > 100 | > 100 |  |  |  |  |  |  |  |  |  |  | 
COc1cc2c(c(O)c1O)-c1ccc(OC)c(=O)cc1C(NC(C)=O)CC2 (configuration not stated) | > 100 | 16.5 | 43.8 | 87.7 | > 100 | 31.1 | 54.7 |  | 29.1 | 26.1 | > 100 |  |  |  |  |  |  |  |  | 
O=C1CCCc2cc3c(cc21)CC1(C3)Cc2ccc3c(c2C1)C(=O)CCC3 (configuration not stated) | > 100 | 88.9 | > 100 | > 100 | > 100 | > 100 | > 100 | > 100 | > 100 |  |  |  |  |  |  |  |  |  |  | 
Nc1nc(Nc2ccccc2)sc1C(=O)c1c[nH]c2ccccc12 | 27.4 | 29.8 | 23.1 | 13.6 | 23.7 | 33.2 | 49.2 | 32.3 | 56.7 |  |  |  |  |  |  |  |  |  |  | 
COC(=O)C1(Cc2ccc3c(c2)CCC3)Cc2cc3c(cc2C1)CCC3 | > 100 | 49.3 | 68.8 | > 100 | > 100 | > 100 | > 100 | > 100 | > 100 |  |  |  |  |  |  |  |  |  |  | 
COc1ccc(-c2csc(NC(=O)CSc3nc(C)c(-c4ccccc4)n3Nc3ccccc3)n2)cc1 | > 100 | > 100 | > 100 | > 100 | > 100 | > 100 | > 100 | > 100 | > 100 |  |  | 3.8 | 9.52 | > 100 | 7.41 | 4.87 | > 100 | 4.96 | 13.3 | 5.29
Cc1c2ccncc2c(C)c2c1[nH]c1ccccc12 | 3 | 6.79 | 0.595 | 1.32 | 2.96 | 2.59 | 2.58 | 6.03 | 5.09 | 2.16 | 2.22 |  |  |  |  |  |  |  | 1.45 | 
O=[N+]([O-])c1ccc(C2=Nc3ccccc3SC(c3ccccc3)C2)cc1 (configuration not stated) | 44.3 | 33.2 | 40 | 43.9 | 51.2 |  |  |  | 67.6 | 31 | 27.5 |  |  |  |  |  |  |  |  | 
COC(=O)[C@H](C)NC(=O)[C@H](CSC)N1C(=O)N[C@@H](C(C)C)C1=O | > 100 | > 100 | > 100 | > 100 | > 100 | > 100 | > 100 | > 100 | > 100 |  |  |  |  |  |  |  |  |  |  | 
COc1ccc(N=Nc2c3c(c(O)c4ccccc24)CCC(C)(C)O3)cc1 | 54.1 | 40.3 | 34 | 29.8 | 39 | 47.1 | 34.4 | 63.9 | > 100 |  |  |  |  |  |  |  |  |  |  | 
C[C@]12CC[C@H](O)C=C1CC[C@@H]1[C@@H]2CC[C@]2(C)C(c3ccc(=O)oc3)CC[C@]12O (some centres not stated) | 0.145 | 0.0647 | < 0.0125 | 0.0156 | 0.0172 | 0.0448 | 0.023 |  | 0.405 | 0.071 | 0.0427 |  |  |  |  |  |  |  |  | 
CC/C(Cl)=N\OC(=O)Nc1ccc(F)c([N+](=O)[O-])c1 | 35.6 | 32 | 30.4 | > 100 | 43.4 | 12 | 35.6 | 34.9 | > 24.5 |  |  |  |  |  |  |  |  |  |  | 
Cc1cc2c(nn1)-c1ccccc1C2=O | > 10 | > 10 | > 10 | > 10 | > 10 | > 10 | > 10 | > 10 | > 10 |  |  |  |  |  |  |  |  |  |  | 
C[C@]1(S(=O)(=O)c2ccccc2)C[C@H]2N(Cc3ccccc3)[C@@H]1CCC21OCCO1 | > 100 | > 100 | > 100 | > 100 | > 100 | > 100 | > 100 | > 100 | > 100 |  |  |  |  |  |  |  |  |  |  | 
O=C(Nc1ccc(-n2cc(-c3ccncc3)c(-c3ccc(O)c(Cl)c3)n2)cc1)Nc1cccc(Cl)c1Cl | > 32.5 | > 32.5 | 5.25 | > 32.5 | > 32.5 | 9.84 | > 32.5 | 10.3 | > 32.5 |  |  | 9.99 | 7.18 | 0.973 | 5.74 | 9.11 | 1.16 | 14.6 | 1.52 | 5.4

Reference: PubChem BioAssay (NCI)
